Laboratory results taken from US7482379B2, “Propenoyl hydrazides” (priority 2004, dated 2009).

Key:
Gingipain K = Gingipain K (Porphyromonas gingivalis, UniProt Q51817); assay: biochemical; type: biochemical
Caspase-9 = biological target: T1, Caspase-9 (Homo sapiens, UniProt P55211); assay: Caspase-9 progress curve inhibition assay; conditions: second-order rate constant; Ac-LEHD-AFC substrate; Hepes buffer pH 7.0 with 0.7 M sodium citrate
T1 sequence (P55211 1-315 limits assumed): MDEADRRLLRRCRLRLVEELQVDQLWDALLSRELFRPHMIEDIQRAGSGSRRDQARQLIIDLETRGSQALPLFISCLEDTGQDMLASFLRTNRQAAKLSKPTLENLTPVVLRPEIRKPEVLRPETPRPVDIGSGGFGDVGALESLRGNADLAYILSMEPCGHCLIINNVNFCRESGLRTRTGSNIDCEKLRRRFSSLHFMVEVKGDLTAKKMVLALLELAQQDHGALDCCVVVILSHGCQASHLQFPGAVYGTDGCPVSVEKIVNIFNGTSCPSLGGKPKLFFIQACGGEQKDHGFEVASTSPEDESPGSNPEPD
T1 sequence (P55211 331-416 limits assumed): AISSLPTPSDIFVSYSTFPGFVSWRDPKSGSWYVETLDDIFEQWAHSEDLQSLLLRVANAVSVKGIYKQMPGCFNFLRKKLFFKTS

Caspase-7 = biological target: T2, Caspase-7 (Homo sapiens, UniProt P55210); assay: Caspase-7 progress curve inhibition assay; conditions: second-order rate constant; Ac-DEVD-AMC substrate; Pipes buffer pH 7.2
T2 sequence (P55210 24-198 limits assumed): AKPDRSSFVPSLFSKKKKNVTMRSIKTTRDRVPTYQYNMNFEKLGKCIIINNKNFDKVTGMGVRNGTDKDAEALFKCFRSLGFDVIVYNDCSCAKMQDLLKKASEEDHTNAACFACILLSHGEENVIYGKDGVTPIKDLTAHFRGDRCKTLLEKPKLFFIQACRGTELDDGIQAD
T2 sequence (P55210 207-303 limits assumed): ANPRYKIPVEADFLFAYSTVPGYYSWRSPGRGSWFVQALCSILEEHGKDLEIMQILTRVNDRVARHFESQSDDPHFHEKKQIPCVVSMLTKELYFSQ

Caspase-6 = biological target: T3, Caspase-6 (Homo sapiens, UniProt P55212); assay: Caspase-6 progress curve inhibition assay; conditions: second-order rate constant; Ac-DEVD-AMC substrate; Pipes buffer pH 7.2
T3 sequence (P55212 24-179 limits assumed): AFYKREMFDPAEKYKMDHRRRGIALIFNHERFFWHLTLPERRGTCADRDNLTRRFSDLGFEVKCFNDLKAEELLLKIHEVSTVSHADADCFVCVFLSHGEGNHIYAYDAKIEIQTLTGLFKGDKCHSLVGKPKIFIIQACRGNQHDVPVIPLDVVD
T3 sequence (P55212 194-293 limits assumed): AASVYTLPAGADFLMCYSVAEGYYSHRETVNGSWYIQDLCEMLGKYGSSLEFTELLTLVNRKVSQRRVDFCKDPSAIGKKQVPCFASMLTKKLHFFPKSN

Caspase-3 = biological target: T4, Caspase-3 (Homo sapiens, UniProt P42574); assay: Caspase-3 progress curve inhibition assay; conditions: second-order rate constant; Ac-DEVD-AMC substrate; Pipes buffer pH 7.2
T4 sequence (P42574 29-175 limits assumed): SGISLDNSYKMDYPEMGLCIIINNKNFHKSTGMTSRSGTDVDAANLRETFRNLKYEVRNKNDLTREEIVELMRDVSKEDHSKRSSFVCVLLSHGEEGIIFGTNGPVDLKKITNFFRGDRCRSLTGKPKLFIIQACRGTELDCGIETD
T4 sequence (P42574 176-277 limits assumed): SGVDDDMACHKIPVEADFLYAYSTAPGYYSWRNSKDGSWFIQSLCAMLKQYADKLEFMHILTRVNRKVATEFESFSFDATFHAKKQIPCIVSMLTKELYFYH

Caspase-2 = biological target: T5, Caspase-2 (Homo sapiens, UniProt P42575); assay: Caspase-2 progress curve inhibition assay; conditions: second-order rate constant; Cbz-VDVAD-AFC substrate; Pipes buffer pH 7.2
T5 sequence (P42575 170-333 limits assumed): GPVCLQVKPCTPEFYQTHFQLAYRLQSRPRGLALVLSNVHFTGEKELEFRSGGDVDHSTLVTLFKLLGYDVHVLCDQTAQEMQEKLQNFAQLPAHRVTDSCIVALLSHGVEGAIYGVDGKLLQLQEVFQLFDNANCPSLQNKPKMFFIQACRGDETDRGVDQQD
T5 sequence (P42575 348-452 limits assumed): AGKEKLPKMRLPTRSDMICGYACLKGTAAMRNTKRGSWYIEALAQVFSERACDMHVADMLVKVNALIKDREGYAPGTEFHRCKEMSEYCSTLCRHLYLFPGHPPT
Description: Inhibition rates were determined by the progress curve method known in the art. This method is suitable for measuring irreversible inhibition rates with fast inhibitors, where the inhibitor, the substrate and the enzyme are incubated together and the rate of substrate hydrolysis is measured continuously. The rate of substrate hydrolysis in the presence of the inhibitor was monitored for 20 minutes. The progress curve of inhibition, where the product formation approaches an asymptote is described in the equation ln([P∞]−[P])=ln[P∞]−A[I]t where [P] and [P∞] are the product concentrations at t and t=∞ respectively, A is the apparent rate constant in the presence of the substrate. The apparent rate constants were determined from the slopes of plots of ln ([P∞]−[P]) versus time (t) in seconds as previously described, where A=slope/[I].
(§1) For competitive and irreversible inhibition, the apparent rate constant is converted to the second order rate constant k2 by taking into consideration the effect of the substrate concentration on the apparent rate constant. The second order rate constant is described as in the equation: k2=A*(1+[S]/KM)
The concentration of the caspase-3 stock solution was 2 nM in the assay buffer. Assay buffer is a 1:1 mixture of caspase buffer (40 mM Pipes, 200 mM NaCl, 0.2% (w/v) CHAPS, sucrose 20% (w/v)) and 20 mM DTT solution in H2O at pH 7.2. The concentration of the substrate stock solution was 2 mM in DMSO. The enzyme was pre-activated for 10 min at 37° C. in the assay buffer. […] 50 μL of 2 nM enzyme stock solution (final concentration: 1 nM) was added to the mixture after 1 min and reading started immediately for 20 min at 37° C. Inhibition experiments were repeated in duplicate and standard deviations determined.
The inhibitor stock solution concentrations varied from 5×10^−3 M to 1×10^−4 M in DMSO.

Caspase-8 = Caspase-8 (Homo sapiens, UniProt Q14790); assay: Caspase-8 progress curve inhibition assay; conditions: second-order rate constant; Ac-DEVD-AMC substrate; Pipes buffer pH 7.2
Caspase-10 = biological target: T6, Caspase-10 (Homo sapiens, UniProt Q92851); assay: Caspase-10 progress curve inhibition assay; conditions: second-order rate constant; Ac-DEVD-AMC substrate; Hepes/PEG buffer pH 7.0
T6 sequence (Q92851 220-415 limits assumed): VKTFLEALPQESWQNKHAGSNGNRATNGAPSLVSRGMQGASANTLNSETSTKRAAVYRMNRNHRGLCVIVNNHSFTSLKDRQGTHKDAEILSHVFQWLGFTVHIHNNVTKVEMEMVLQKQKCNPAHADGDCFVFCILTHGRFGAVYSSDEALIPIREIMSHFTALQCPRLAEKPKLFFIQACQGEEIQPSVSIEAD
T6 sequence (Q92851 416-521 limits assumed): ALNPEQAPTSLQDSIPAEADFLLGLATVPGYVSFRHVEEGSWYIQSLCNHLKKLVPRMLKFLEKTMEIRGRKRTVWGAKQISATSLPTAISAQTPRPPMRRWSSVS
Description: Caspase-2, -3, -6, -7, -8, -9 and -10. Caspases-2, -3, -6, -7, -8, -9 and -10 were expressed in E. coli and purified in Guy Salvesen's laboratory at the Burnham Institute, La Jolla, Calif., according to the methods known in the art. Inhibition rates were determined by the progress curve method known in the art. This method is suitable for measuring irreversible inhibition rates with fast inhibitors, where the inhibitor, the substrate and the enzyme are incubated together and the rate of substrate hydrolysis is measured continuously. The rate of substrate hydrolysis in the presence of the inhibitor was monitored for 20 minutes. The progress curve of inhibition, where the product formation approaches an asymptote is described in the equation ln([P∞]−[P])=ln[P∞]−A[I]t where [P] and [P∞] are the product concentrations at t and t=∞ respectively, A is the apparent rate constant in the presence of the substrate. The apparent rate constants were determined from the slopes of plots of ln ([P∞]−[P]) versus time (t) in seconds as previously described, where A=slope/[I].
as §1
Assay buffer is a 1:1 mixture of buffer (200 mM Hepes, 0.2% (w/v) CHAPS, PEG 20% (w/v)) and 20 mM DTT solution in H2O at pH 7.0). The enzyme was pre-activated for 10 min at 25° C. in the assay buffer.

Sequence of Caspase-8 (Q14790 217-374 limits assumed): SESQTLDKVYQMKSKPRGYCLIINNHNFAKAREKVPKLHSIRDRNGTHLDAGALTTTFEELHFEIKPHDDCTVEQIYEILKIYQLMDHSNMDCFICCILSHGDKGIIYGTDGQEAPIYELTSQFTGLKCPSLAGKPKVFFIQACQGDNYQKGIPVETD
Sequence of Caspase-8 (Q14790 385-479 limits assumed): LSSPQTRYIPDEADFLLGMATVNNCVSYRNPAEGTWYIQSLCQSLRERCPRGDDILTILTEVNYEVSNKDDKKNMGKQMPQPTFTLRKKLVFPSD
Sequence of Gingipain K (Q51817 229-1732 limits assumed): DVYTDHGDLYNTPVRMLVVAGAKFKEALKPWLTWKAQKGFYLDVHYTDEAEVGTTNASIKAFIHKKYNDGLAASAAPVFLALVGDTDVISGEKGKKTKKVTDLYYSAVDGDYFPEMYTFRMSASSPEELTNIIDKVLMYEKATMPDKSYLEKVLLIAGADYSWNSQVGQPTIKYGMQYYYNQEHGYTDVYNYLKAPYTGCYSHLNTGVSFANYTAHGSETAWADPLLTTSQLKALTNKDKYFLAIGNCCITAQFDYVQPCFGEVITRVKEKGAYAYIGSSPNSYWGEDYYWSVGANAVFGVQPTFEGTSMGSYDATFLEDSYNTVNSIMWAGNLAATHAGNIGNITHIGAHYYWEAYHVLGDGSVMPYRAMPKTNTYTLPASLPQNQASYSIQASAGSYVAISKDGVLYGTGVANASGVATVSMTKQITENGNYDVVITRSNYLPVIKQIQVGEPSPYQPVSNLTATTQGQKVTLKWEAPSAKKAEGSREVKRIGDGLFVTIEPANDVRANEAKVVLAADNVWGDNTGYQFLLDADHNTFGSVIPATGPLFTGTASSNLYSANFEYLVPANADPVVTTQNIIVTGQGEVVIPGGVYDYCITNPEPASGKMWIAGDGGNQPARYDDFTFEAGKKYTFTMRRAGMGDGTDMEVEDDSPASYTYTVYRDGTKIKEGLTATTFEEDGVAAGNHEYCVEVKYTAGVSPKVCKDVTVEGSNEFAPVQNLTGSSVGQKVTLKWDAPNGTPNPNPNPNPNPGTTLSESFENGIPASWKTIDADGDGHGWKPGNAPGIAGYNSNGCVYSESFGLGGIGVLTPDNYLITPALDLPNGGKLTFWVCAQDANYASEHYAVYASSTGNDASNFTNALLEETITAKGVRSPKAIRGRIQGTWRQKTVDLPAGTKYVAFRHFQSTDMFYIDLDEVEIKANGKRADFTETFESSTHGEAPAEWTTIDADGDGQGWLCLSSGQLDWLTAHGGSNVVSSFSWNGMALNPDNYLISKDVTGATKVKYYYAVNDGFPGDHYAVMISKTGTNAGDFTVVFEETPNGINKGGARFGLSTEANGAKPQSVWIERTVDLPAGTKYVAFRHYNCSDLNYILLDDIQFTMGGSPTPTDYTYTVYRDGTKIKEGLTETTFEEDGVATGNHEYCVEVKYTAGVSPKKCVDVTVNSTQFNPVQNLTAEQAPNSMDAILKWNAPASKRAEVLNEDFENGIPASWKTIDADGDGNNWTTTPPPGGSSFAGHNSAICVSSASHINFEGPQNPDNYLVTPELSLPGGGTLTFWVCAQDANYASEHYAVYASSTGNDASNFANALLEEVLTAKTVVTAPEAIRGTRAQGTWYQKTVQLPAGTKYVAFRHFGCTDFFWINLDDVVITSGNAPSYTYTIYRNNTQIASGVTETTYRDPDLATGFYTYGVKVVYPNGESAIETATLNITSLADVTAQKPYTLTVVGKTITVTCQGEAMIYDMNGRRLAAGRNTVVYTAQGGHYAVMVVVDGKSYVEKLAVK

Row | Structure (SMILES) | kobs/[I] Gingipain K (Gingipain K; Table 6, legumain specific inhibitors, NI = no inhibition after 20 minutes of incubation) | kinact/KI (Gingipain K; pH 8, read-out: kobs/[I] Gingipain K) | k2 Caspase-9 (Caspase-9) | k2 Caspase-7 (Caspase-7) | k2 Caspase-6 (Caspase-6) | k2 Caspase-3 (Caspase-3) | k2 Caspase-2 (Caspase-2) | k2 Caspase-8 (Caspase-8) | k2 Caspase-10 (Caspase-10)
1 | CC(NC(=O)OCc1ccccc1)C(=O)NC(C)C(=O)NN(CC(N)=O)C(=O)C=CC(=O)N(C)c1ccc2ccccc2c1 (stereo not drawn) | 6 M⁻¹ s⁻¹ | – | – | – | – | – | – | – | –
2 | C[C@H](NC(=O)OCc1ccccc1)C(=O)N[C@@H](C)C(=O)NN(CC(N)=O)C(=O)/C=C/C(=O)N(C)Cc1ccccc1 [Cbz-Ala-Ala-AAsn-CH═CH—CON(CH3)Bzl, N^2—(N-Benzyloxycarbonylalanylalanyl)-N^1-carbamoylmethyl-N^1-trans-(3-benzylmethylcarbamoylpropenoyl)hydrazine] | – | 1 M⁻¹ s⁻¹ | – | – | – | – | – | – | –
3 | CC(C)[C@H](NC(=O)[C@H](CCC(=O)O)NC(=O)[C@H](CC(=O)O)NC(=O)OCc1ccccc1)C(=O)NN(CC(=O)O)C(=O)/C=C/C(=O)NCc1ccccc1 (relative stereo) [Cbz-Asp-Glu-Val-AAsp-CH═CH—CONHCH2Ph, N^1-trans-(3-Benzylcarbamoylpropenoyl)-N^2—(N-benzyloxycarbonylaspartylglutamylvalyl)-N^1-carboxymethylhydrazine] | – | – | 2,010 M^−1s^−1 | 249,000 M^−1s^−1 | 3,210 M^−1s^−1 | 1,750,000 M^−1s^−1 | 130 M⁻¹ s⁻¹ | 78,235 M^−1s^−1 | 19,400 M^−1s^−1
4 | CC(C)C[C@H](NC(=O)OCc1ccccc1)C(=O)N[C@@H](CCC(=O)O)C(=O)N[C@H](C(=O)NN(CC(=O)O)C(=O)/C=C/C(=O)N(C)Cc1cccc2ccccc12)[C@@H](C)O (relative stereo) [N^2—(N-Benzyloxycarbonylleucylglutamylthreonyl)-N^1-carboxylmethyl-N^1-trans-(3-(methyl-1-naphthylmethyl)carbamoylpropenoyl)hydrazine] | – | – | 5,030 M^−1s^−1 | 1,100 M^−1s^−1 | 21,700 M^−1s^−1 | 11,200 M^−1s^−1 | 290 M⁻¹ s⁻¹ | 179,000 M^−1s^−1 | 13,600 M^−1s^−1
5 | CC(C)C[C@H](NC(=O)OCc1ccccc1)C(=O)N[C@@H](CCC(=O)O)C(=O)N[C@H](C(=O)NN(CC(=O)O)C(=O)/C=C/C(=O)N(C)CCc1ccccc1)[C@@H](C)O (relative stereo) [N^2—(N-Benzyloxycarbonylleucylglutamylthreonyl)-N^1-carboxylmethyl-N^1-trans-(3-methylphenylethylcarbamoylpropenoyl)hydrazine] | – | – | 960 M⁻¹ s⁻¹ | 290 M⁻¹ s⁻¹ | 2,550 M^−1s^−1 | 2,620 M^−1s^−1 | 50 M⁻¹ s⁻¹ | 65,300 M^−1s^−1 | 6,190 M^−1s^−1
6 | CC(C)[C@H](NC(=O)[C@H](CCC(=O)O)NC(=O)[C@H](CC(=O)O)NC(=O)OCc1ccccc1)C(=O)NN(CC(=O)O)C(=O)/C=C/C(=O)NCc1ccc(F)cc1 (relative stereo) [N^2—(N-Benzyloxycarbonylaspartylglutamylvalyl)-N^1-carboxymethyl-N^1-trans-(3-(4-fluorobenzyl)carbamoylpropenoyl)hydrazine] | – | – | 900 M⁻¹ s⁻¹ | 329,000 M^−1s^−1 | 4,400 M^−1s^−1 | 2,100,000 M^−1s^−1 | 130 M⁻¹ s⁻¹ | 85,100 M^−1s^−1 | 37,700 M^−1s^−1
7 | CC(C)C[C@H](NC(=O)OCc1ccccc1)C(=O)N[C@@H](CCC(=O)O)C(=O)N[C@H](C(=O)NN(CC(=O)O)C(=O)/C=C/C(=O)N(Cc1ccccc1)Cc1ccccc1)[C@@H](C)O (relative stereo) [Cbz-Leu-Glu-Thr-AAsp-CH═CH—CON(CH2Ph)2, N^2—(N-Benzyloxycarbonylleucylglutamylthreonyl)-N^1-carboxylmethyl-N^1-trans-(3-dibenzylcarbamoylpropenoyl)hydrazine] | – | – | 1,105 M^−1s^−1 | 760 M⁻¹ s⁻¹ | 14,100 M^−1s^−1 | 8,630 M^−1s^−1 | 110 M⁻¹ s⁻¹ | 129,000 M^−1s^−1 | 8,080 M^−1s^−1
8 | CC(C)[C@H](NC(=O)[C@H](CCC(=O)O)NC(=O)[C@H](CC(=O)O)NC(=O)OCc1ccccc1)C(=O)NN(CC(=O)O)C(=O)/C=C/C(=O)NCCc1ccccc1 (relative stereo) [Cbz-Asp-Glu-Val-AAsp-CH═CH—CONHCH2CH2Ph, N^2—(N-Benzyloxycarbonylaspartylglutamylvalyl)-N^1-carboxymethyl-N^1-trans-(3-phenethylcarbamoylpropenoyl)hydrazine] | – | – | 655 M⁻¹ s⁻¹ | 267,000 M^−1s^−1 | 3,470 M^−1s^−1 | 1,950,000 M^−1s^−1 | 120 M⁻¹ s⁻¹ | 129,000 M^−1s^−1 | 31,400 M^−1s^−1
9 | CC(C)C[C@H](NC(=O)OCc1ccccc1)C(=O)N[C@@H](CCC(=O)O)C(=O)N[C@H](C(=O)NN(CC(=O)O)C(=O)/C=C/C(=O)NCCc1ccccc1)[C@@H](C)O (relative stereo) [Cbz-Leu-Glu-Thr-AAsp-CH═CH—CONHCH2CH2Ph, N^2—(N-Benzyloxycarbonylleucylglutamylthreonyl)-N^1-carboxylmethyl-N^1-trans-(3-phenylethylcarbamoylpropenoyl)hydrazine] | – | – | 1,760 M^−1s^−1 | 440 M⁻¹ s⁻¹ | 2,150 M^−1s^−1 | 5,400 M^−1s^−1 | 110 M⁻¹ s⁻¹ | 121,000 M^−1s^−1 | 17,900 M^−1s^−1
